The source of these data is US9828413B2, “Vancomycin derivative, and preparation method and application thereof” (ACESYS PHARMA INC., priority 2013, dated 2017).

What is called MIC is the least concentration at which growth counts as inhibited. One may read the solubility as the dissolved amount per volume that the medium holds. Read a low solubility as a poorly soluble substance.

Data set [1] relates to Staphylococcus aureus Mu50. Kind of data set: In vitro activity assay, minimum inhibitory concentration (MIC), cup-plate method. The data set is classed as cell-based. As to the method: (§1) In vitro activity assay was performed according to Microbiological Identification of Antibiotics, Appendix XIA, Volume II, Chinese Pharmacopoeia 2010. Vancomycin-sensitive Staphylococcus aureus strains (Newman and Mu 50) were selected as the test strains, and trypticase soy broth was selected as the culture medium.

Data set [2] has as its system Staphylococcus aureus Newman. Described as above. The data set is classed as cell-based. The note with it: read-out: MIC values, Staphylococcus aureus Newman. On the procedure:
as §1

A short description of the next data set: physchem. The note with it: 25 °C, water, thermodynamic from solid.
A short description of data set [3]: Solubility test of compounds in water. The note with it: 25 °C, thermodynamic from solid.
The conditions of data set [4]: data from US2010/045201; cited from earlier work.
Where [5] appears, read: strain Mu50, trypticase soy broth, read-out: MIC values, Staphylococcus aureus Mu50.
Where [6] appears, read: strain Newman, trypticase soy broth.

Converted amounts (≈) assume the structure as drawn. Where two headings read alike, the source gives them in different places. Some results are limits rather than exact numbers.

With `CCCCCCCCCCOC(CNC1(C)CC(OC2C(Oc3c4cc5cc3Oc3ccc(cc3Cl)[C@@H](O)[C@@H]3NC(=O)C(NC(=O)C5NC(=O)C(CC(N)=O)NC(=O)[C@@H](NC(=O)[C@H](N)CC(C)C)C(O)c5ccc(c(Cl)c5)O4)c4ccc(O)c(c4)-c4c(O)cc(O)cc4C(C(=O)O)NC3=O)OC(CO)C(O)C2O)OC(C)C1O)C(=O)O` (stereo partly shown) [Compound V68], the MIC came out at 8 µg/mL (≈ 4.81 µM) in data set [1] (setting [5]) and 4 µg/mL (≈ 2.4 µM) in data set [2] (setting [6]). The same compound showed a solubility at 30 min in “physchem” of 5000 to 10000 µg/mL (≈ 3010 to 6010 µM).
On the same counts, the results for `CCCCCCCCCCOC(CNC1(C)CC(OC2C(Oc3c4cc5cc3Oc3ccc(cc3Cl)[C@@H](OC3CC(C)(N)C(O)C(C)O3)[C@@H]3NC(=O)C(NC(=O)C5NC(=O)C(CC(N)=O)NC(=O)[C@@H](NC(=O)[C@@H](CC(C)C)NC)C(O)c5ccc(c(Cl)c5)O4)c4ccc(O)c(c4)-c4c(O)cc(O)cc4C(C(=O)O)NC3=O)OC(CO)C(O)C2O)OC(C)C1O)C(=O)O` (stereo partly shown) [Compound V69] are 8 µg/mL (≈ 4.39 µM), 2 µg/mL (≈ 1.1 µM) and 5000 to 10000 µg/mL (≈ 2750 to 5490 µM).
As to `CN[C@H](CC(C)C)C(=O)N[C@H]1C(=O)N[C@@H](CC(N)=O)C(=O)N[C@H]2C(=O)N[C@H]3C(=O)N[C@H](C(=O)N[C@H](C(=O)O)c4cc(O)cc(O)c4-c4cc3ccc4O)[C@H](O)c3ccc(c(Cl)c3)Oc3cc2cc(c3O[C@@H]2O[C@H](CO)[C@@H](O)[C@H](O)[C@H]2O[C@H]2C[C@](C)(N)[C@H](O)[C@H](C)O2)Oc2ccc(cc2Cl)[C@H]1O` [Vancomycin], the MIC came to 8 µg/mL (≈ 5.52 µM) in data set [1] (MU50, read-out: MIC values, Staphylococcus aureus Mu50) and 2 µg/mL (≈ 1.38 µM) in data set [2] (NEWMAN). For the same compound, the solubility at 30 min in data set [3] was at least 100000 µg/mL.
Oritavancin: the Solubility in water in data set [4] is under 100 µg/mL.
